Consider 85 compounds from ChEMBL document CHEMBL1157539, “Thousands of chemical starting points for antimalarial lead identification” (Nature, 2010).

Each structure is given as a SMILES string.

In the test the test system is Plasmodium falciparum. Nature of the test: GSK_TCMDC: Inhibition of Plasmodium falciparum 3D7 in whole erythrocytes, using parasite LDH activity as an index of growth. To be noted: Plasmodium falciparum, 3D7. The class given is functional, organism-based.
Take `CCN(CC)CCN(CCCc1ccc(-c2ccc(C(F)(F)F)cc2)cc1)C(=O)Cn1c(CCc2cccc(F)c2F)nc(=O)c2ccccc21`: the XC50 was 0.767 µM.

The compound `CC(C)N1CCC(N(Cc2ccc(-c3ccc(C(F)(F)F)cc3)cc2)C(=O)Cn2c(SCc3cccc(F)c3F)nc(=O)c3ccccc32)CC1` showed an XC50 of 1.05 µM.

As for `O=C(Nc1ccc(C(=O)OCC2CCCN3CCCCC23)cc1)c1ccc(Cl)c(Cl)c1` (stereo not given), the XC50 came out at 0.721 µM.

`N#Cc1ccc(Cn2ccc3c4c(N)nc(N)nc4ccc32)cc1`: the XC50 came to 0.00329 µM.

`FC(F)(F)CNc1nc(Nc2ccc3ncccc3c2)nc2[nH]ccc12` displayed an XC50 of 1.24 µM.

Turning to `N#Cc1cccc(C(=O)Nc2cccc(-c3ccc(C(=O)NCCCN4CCOCC4)cc3)c2)c1`, the XC50 came to 0.749 µM.

`N#Cc1cc([N+](=O)[O-])ccc1-n1nc(-c2cccc(Cl)c2)n(Cc2ccco2)c1=S` registered an XC50 of 0.196 µM.

`COC[C@H]1CCCN1Cc1ccc(-c2ccc(-c3nc4ccccc4[nH]3)s2)cc1` displayed an XC50 of 1 µM.

With `COc1ccc(NC(=O)C2c3ccccc3C(=O)N(C3CCCC3)C2c2cccs2)cc1` (stereo not given), the XC50 was determined as 1.71 µM.

Take `O=S(=O)(NCCN1CCCC1)c1cccc(-c2cccc(CNCc3ccccc3)c2)c1`: the XC50 worked out at 0.811 µM.

In turn, `OCC1CCN(Cc2ccc(-c3ccc(-c4nc5cc(C(F)(F)F)ccc5[nH]4)s3)cc2)CC1` yielded an XC50 of 0.477 µM.

Turning to `CC(C)n1ncc2c(C(=O)N3CCCC4CCCCC43)cc(C3CC3)nc21` (stereo not given), the XC50 came to 0.676 µM.

In turn, `CN1CCC(C(=O)N(Cc2ccc(-c3ccc(CNCCc4ccc(S(C)(=O)=O)cc4)cn3)cc2)C2CCN(Cc3ccccc3)CC2)CC1` displayed an XC50 of 0.673 µM.

`CN(C)CC(O)C(c1ccccc1)c1ccc(Cl)cc1` (stereo not given): the XC50 was 0.0484 µM.

The compound `Cc1ccccc1N1CCN(c2ccc(C(=O)Nc3ccccc3)cn2)CC1` returned an XC50 of 0.587 µM.

As to `CC(C)CNCc1cccc(-c2ccc(CN(C(=O)Nc3ccccc3)C3CCN(Cc4ccccc4)CC3)cc2)c1`, the XC50 stood at 0.476 µM.

On to `O=C(Nc1ccc(Cl)cc1C(=O)Nc1cccc(F)c1)c1ccc([N+](=O)[O-])cc1`, for which the XC50 was 0.365 µM.

Turning to `CCOc1c(CCNCCCCNCCc2ccc3ccccc3c2OCC)ccc2ccccc12`, the XC50 worked out at 0.596 µM.

For `CN(C)Cc1ccc2cc(NC(=O)c3ccc(-c4ccc(Cl)cc4)cc3)ccc2c1`, the XC50 was 1.34 µM.

`CN/C(=N\O)NCCN(C)C` showed an XC50 of 1.18 µM.

`Cc1c(NCCCNCc2cc(Cl)cc(Cl)c2Cl)[nH]c2ccccc2c1=O` returned an XC50 of 0.314 µM.

In the case of `O=C(Nc1ccc(Cl)cc1)c1cc(Cl)ccc1NC(=O)C1CCc2ccccc2O1` (stereo not given), the XC50 was determined as 1.79 µM.

For the compound `FC(F)(F)c1cccc(CNC2CCN(CC3CCCCC3)CC2)c1`, the XC50 was 0.575 µM.

On to `O=C(NC1CCC(CN2CCC(c3c[nH]c4ccccc34)CC2)CC1)NC12CC3CC(CC(C3)C1)C2` (stereo not given), for which the XC50 was found to be 1.06 µM.

The compound `CO/C(=C\C=C\c1cc2cc(Cl)c(Cl)cc2[nH]1)C(=O)NCCCN1CCC(c2ccccc2)CC1` displayed an XC50 of 0.906 µM.

Take `Cc1cccc(CNc2nc(C)cc(NCCC(=O)NCCOc3ccccc3)n2)c1`: the XC50 worked out at 0.871 µM.

As to `CCOc1ccc2c(=NN=Cc3ccccc3F)cc(C)[nH]c2c1`, the XC50 stood at 0.676 µM.

Compound `Cc1cccc2nc(-c3cccc(-c4ccc(NC(=O)c5c[nH]cn5)cc4)c3)[nH]c12` came in with an XC50 of 0.722 µM.

Compound `Cc1cccc2nc(-c3ccc(-c4ccc(CN5CCN(CC6CCCN(C)C6)CC5)cc4)cc3)[nH]c12` (stereo not given) returned an XC50 of 0.144 µM.

`O=c1cc(NCCCNCc2cc3c(Cl)cccc3s2)[nH]c2ccccc12` displayed an XC50 of 0.474 µM.

With `Cc1ccccc1CNc1nccc(NCCC(=O)Nc2ccccc2)n1`, the XC50 was determined as 0.892 µM.

Turning to `Clc1ccc(CNCC2CCN(CC3CCCCC3)CC2)cc1Cl`, the XC50 worked out at 1 µM.

`CCNc1cc(C(=O)N[C@@H](Cc2ccccc2)[C@H](O)CNC2CCCCC2)cc(N2CCCCS2(=O)=O)c1` had an XC50 of 0.17 µM.

On to `c1ccc(COc2ccc(Nc3ncnc4cnc(-c5ccc(CNc6cccnc6)o5)cc34)cc2)cc1`, for which the XC50 is 0.857 µM.

`CON=Cc1ccn(-c2ccc(O)c3c2C[C@H]2C[C@H]4[C@H](N(C)C)C(O)=C(C(N)=O)C(=O)[C@@]4(O)C(O)=C2C3=O)c1` registered an XC50 of 0.773 µM.

`COc1cccc(CN2CCC(N3CCc4cc(NC(=O)c5cc(C)on5)ccc43)C2)c1OC` (stereo not given) yielded an XC50 of 0.952 µM.

`CCC(CN1C(=O)C(c2ccccc2)(c2ccccc2)N=C1N)c1ccccc1` (stereo not given) showed an XC50 of 0.136 µM.

Compound `Cc1c(CC(=O)N(C)C2CCN(CCCCCNC(=O)/C=C/c3ccc(Cl)c(Cl)c3)CC2)sc2ccc(Cl)cc12` showed an XC50 of 1.16 µM.

The compound `Cc1ccc2c(c1)nc(N)n2C[C@H](O)c1ccccc1` yielded an XC50 of 0.582 µM.

With `CCN(CC)CCCC(C)N=c1cc(C=Cc2ccc([N+](=O)[O-])cc2)[nH]c2ccc(OC)cc12` (stereo not given), the XC50 stood at 0.574 µM.

Compound `O=C(NCCCNc1ccc2ccccc2n1)c1cc2c(Cl)cc(Cl)cc2[nH]1` returned an XC50 of 0.604 µM.

In the case of `Cc1ccccc1C1CCN(C2CCC(NC(=O)c3ccc4c(c3)-c3nocc3C(C)O4)CC2)CC1` (stereo not given), the XC50 worked out at 1.27 µM.

`O=C(Nc1ccc(OC2CCN(Cc3ccc(F)cc3)CC2)c(Cl)c1)c1ccc(F)cc1`: the XC50 turned out to be 0.188 µM.

As to `O=C(Nc1ccc(Cn2ncc(N3CCCNCC3)c(Cl)c2=O)cc1)Nc1ccc(-c2ccccc2)cc1`, the XC50 is 0.797 µM.

`COc1cc(NC(=O)c2sc(-c3ccc(Cl)cc3)cc2NC(=O)c2ccncc2)ccc1OCCN1CCCC1` yielded an XC50 of 0.0315 µM.

`O=C(NC1CCC(CN2CCC(c3c[nH]c4ccccc34)CC2)CC1)c1cc(-c2ccccc2)c(C(F)(F)F)s1` (stereo not given) gave an XC50 of 0.167 µM.

As for `CCOC(=O)N[C@@H]1CN[C@@H](C#Cc2cc3c(Nc4ccc(OCc5cccc(F)c5)c(Cl)c4)ncnc3s2)C1`, the XC50 turned out to be 1.08 µM.

`CCOC(=O)CNCC(=O)c1ccc(OCc2ccccc2)cc1` returned an XC50 of 0.161 µM.

`Cc1nnc(N2C(=N)SC(=Cc3ccc(-c4ccc(OC(F)(F)F)cc4)o3)C2=O)s1` returned an XC50 of 0.526 µM.

For the compound `COc1cc2c(cc1OC)C(C(=O)Nc1cc(OC)c(OC)c(OC)c1)C(c1ccc(SC)cc1)N(C)C2=O` (stereo not given), the XC50 is 0.986 µM.

`CN1CCN(c2ccnc3ccc(NC(=O)Nc4ccccc4Br)cc23)CC1` yielded an XC50 of 0.372 µM.

`COc1cc2nc(-c3ccc(Br)cc3)cc(N)c2cc1OC` had an XC50 of 0.173 µM.

`CC[C@H]1CN2CC[C@@H]1C[C@H]2[C@H](O)c1cc(N2CCC(O)(c3ccccc3)CC2)nc2ccc(OC)cc12` returned an XC50 of 0.09 µM.

With `O=C(/C=C/c1ccc(Cl)c(Cl)c1)NCCCCCN1CCCC(c2c[nH]c3ccccc23)C1` (stereo not given), the XC50 came out at 0.812 µM.

`Clc1ncccc1-c1nc(NCCC(c2ccccc2)c2ccccc2)no1` came in with an XC50 of 1 µM.

The compound `O=C(Nc1ccccc1)N(Cc1ccc(-c2cccc(CNCc3ccc4c(c3)OCO4)c2)cc1)C1CCN(Cc2ccccc2)CC1` had an XC50 of 0.284 µM.

In turn, `O=C(NC1CCCCN(Cc2ccccc2O)C1)c1ccc(Cl)c(Cl)c1` (stereo not given) came in with an XC50 of 0.747 µM.

`O=C(/C=C/c1ccc(Cl)c(Cl)c1)NCCCCCN1CCCN(C(=O)Nc2cc(F)cc(F)c2)CC1`: the XC50 was determined as 0.768 µM.

In turn, `COc1cc(NC(=O)NC(CCN2CCC3(CCc4ccccc43)CC2)c2ccc(Cl)c(Cl)c2)cc(OC)c1OC` (stereo not given) yielded an XC50 of 0.679 µM.

`CC(C)CNCc1ccc(-c2cccc(CN(C(=O)Nc3ccccc3)C3CCN(Cc4ccccc4)CC3)c2)cc1` showed an XC50 of 0.41 µM.

As for `O=C(/C=C/c1ccc(Cl)c(Cl)c1)N1CCC(CNCc2cccc3cc[nH]c23)CC1`, the XC50 is 1.22 µM.

`O=S(=O)(NCCN1CCCC1)c1cccc(-c2cccc(CNCc3ccc(F)cc3)c2)c1` yielded an XC50 of 0.848 µM.

In the case of `Cc1cc(NCCC(=O)Nc2ccccc2)nc(NCCc2cccnc2)n1`, the XC50 was found to be 1.24 µM.

With `Cc1nc(-c2cccc3c(NC(=O)N4CCc5cc6nccc(N7CCN(C)CC7)c6cc54)cccc23)no1`, the XC50 amounted to 0.76 µM.

Compound `COc1cccc(CN2CCCC(CCC(=O)Nc3ccc(C(F)(F)F)cc3)C2)c1O` (stereo not given) showed an XC50 of 0.747 µM.

The compound `CC(C)(C)Nc1cc(C2CC2)nc(-c2ccccn2)n1` yielded an XC50 of 0.679 µM.

`O=C1COC2(CN1C1CCN(Cc3ccc(O)cc3Cl)C1)c1ccccc1-c1ccccc12` (stereo not given) returned an XC50 of 1.33 µM.

`CC(C)c1ccc(N2CCN(CCCCNC(=O)c3ccc(NC(=O)c4cc(Cl)cc(Cl)c4)cc3)CC2)cc1` returned an XC50 of 0.155 µM.

Consider `O=C(Nc1cc(C(F)(F)F)ccc1Cl)c1ccc(Cn2cc(Br)cn2)cc1`, for which the XC50 was found to be 1.35 µM.

As for `CN1c2ccccc2Sc2cc(CNCCSCCNCc3ccc4c(c3)Sc3ccccc3N4C)ccc21`, the XC50 is 1.01 µM.

For the compound `COc1ccc(-c2ccc(CNCc3ccsc3)cc2)cc1S(=O)(=O)NCCN1CCCC1`, the XC50 is 0.794 µM.

The compound `Fc1cccc(COc2ccc(Nc3ncnc4ccc(C#C[C@H]5CCCN5)cc34)cc2Cl)c1` displayed an XC50 of 0.882 µM.

`Cc1ccc2c(Cl)c(C(=O)N3CCCc4ccccc43)sc2c1` registered an XC50 of 1.51 µM.

Compound `OC(c1nnc(S)n1-c1ccccc1)C(O)c1nnc(S)n1-c1ccccc1` (stereo not given) registered an XC50 of 0.741 µM.

In the case of `COc1ccccc1-c1cccc(CNC2CCN(CC3Cn4c(=O)ccc5ccc(F)c3c54)CC2)c1` (stereo not given), the XC50 was determined as 1.38 µM.

In turn, `CCC[C@@H]([C@@H](CC1CCC(C)CC1)C(=O)N[C@@H](CO)C(=O)Nc1nccs1)N(O)C=O` (stereo not given in full) yielded an XC50 of 0.325 µM.

For the compound `c1cc(-c2ccc(CNC3CCOCC3)cc2)cc(-c2nc3ccccc3[nH]2)c1`, the XC50 stood at 0.768 µM.

In the case of `N#Cc1ccc(N/C(=N\c2ccc(-c3ccccc3)cc2)NCCc2c[nH]c3ccccc23)c(O)c1`, the XC50 is 0.336 µM.

In turn, `CN(C)c1ccc(-c2nnc(Sc3ccc(C#N)c([N+](=O)[O-])c3)n2Cc2ccco2)cc1` returned an XC50 of 0.854 µM.

In turn, `Cc1cccc2nc(-c3ccc(-c4ccc(CN5CCCC(N)C5)cc4)s3)[nH]c12` (stereo not given) came in with an XC50 of 0.382 µM.

As to `COc1cc2c(cc1S(=O)(=O)c1ccc(NC(=O)Nc3ccc(F)cc3)cc1)CCN(C)CC2`, the XC50 is 0.473 µM.

In turn, `CC(Cc1ccc(NC(=O)c2ccc(CNCCc3ccccc3)cc2)cc1)NCCc1cccc(Cl)c1` (stereo not given) gave an XC50 of 0.353 µM.

In the case of `O=C(Nc1ccnc(-c2cccnc2)n1)c1cc(C(F)(F)F)cc(C(F)(F)F)c1`, the XC50 stood at 0.823 µM.

For `CCCOC(=O)C1=C(C)NC2=C(C(=O)CC(c3ccc(OC)c(OC)c3)C2)C1c1cccc(O)c1` (stereo not given), the XC50 was found to be 0.121 µM.

The compound `Cc1[nH]c2ccccc2c1C(=O)CSc1nn(-c2ccccc2)c(=S)s1` showed an XC50 of 0.699 µM.
